# According to patent publication US6235742A, “5-substituted pyrazolo[4,3-D]pyrimidin-7-ones” (Pfizer Inc., priority 1997, dated 2001):
# “Also recorded” adds a separate entry of the source. Like-named read-outs stand apart in the source and are kept apart here.
# Key:
# Assay type in all cases: biochemical
# [1] = biological target: T1, PDE5 (Oryctolagus cuniculus, UniProt G1SX67); experiment: PDE5 inhibition, rabbit platelet
# T1 construct: PDE5 is also obtained from human platelets or rabbit platelets; from tissue; host or cells: rabbit platelets
# Excerpt: (§1) In vitro PDE inhibitory activities against cyclic guanosine 3', 5'-monophosphate (cGMP) and cyclic adenosine 3', 5'-monophosphate (cAMP) phosphodiesterases can be determined by measurement of their IC50 inhibition of enzyme activity.
# (§2) The required PDE enzymes are isolated from a variety of sources, including rat kidney, human corpus cavernosum, human platelets, rabbit platelets, human cardiac ventricle, human skeletal muscle and bovine retina, essentially by the method of W J Thompson and M M Appleman (Biochem, 1971, 10, 311).
# (§3) For example, for some of the studies the calcium/calmodulin (Ca/CAM)-dependent PDE (PDE1) is obtained from either human cardiac ventricle or rat kidney. The cGMP-stimulated PDE (PDE2), the cGMP-specificPDE (PDE5) and the cGMP-inhibited cAMP PDE (PDE3) are obtained from human corpus cavernosum tissue. PDE5 is also obtained from human platelets or rabbit platelets by techniques usual in the art. The cAMP-specific PDE (PDE4) is obtained from rat kidney. The photoreceptor PDE (PDE6) is obtained from bovine retina.
# (§4) Assays are performed using a modification of the "batch" method of W J Thompson et al (Biochem, 1979, 18, 5228).
# [2] = system: Ca/CAM-dependent PDE1; experiment: PDE1 inhibition stated in words (source not given); details: for potency and selectivity as PDE1 inhibitor: summary in words
# Excerpt: as §1, §2, §3, §4
# [3] = system: PDE1 (calcium/calmodulin (Ca/CAM)-dependent PDE); experiment: PDE1 inhibition, rat kidney
# Excerpt: as §1, §2, §3, §4
# [4] = biological target: T2, PDE5 (Homo sapiens, UniProt O76074); experiment: PDE5 inhibition, human platelet; details: comparative study
# T2 construct: PDE5 is also obtained from human platelets or rabbit platelets; from tissue; host or cells: human platelets
# Excerpt: as §1, §2, §3, §4
# [5] = system: PDE3 (cGMP-inhibited cAMP PDE); experiment: PDE inhibition, PDE type 3 from human corpus cavernosum; details: PDE type 3, human corpus cavernosum
# Excerpt: as §1, §2, §3, §4
# [6] = system: PDE4 (cAMP-specific PDE); experiment: PDE inhibition, PDE type 4 from rat kidney; details: PDE type 4, rat kidney
# Excerpt: as §1, §2, §3, §4
# [7] = biological target: T3, PDE2 (cGMP-stimulated PDE) (Homo sapiens, UniProt O00408); experiment: PDE inhibition, PDE type 2 from human corpus cavernosum; details: PDE type 2, human corpus cavernosum
# T3 construct: are obtained from human corpus cavernosum tissue; from tissue; host or cells: human corpus cavernosum
# Excerpt: as §1, §2, §3, §4
# [8] = biological target: T4, PDE6 (photoreceptor PDE) (Bos taurus, UniProt P11541+P23439); experiment: PDE inhibition, PDE type 6 from bovine retina; details: PDE type 6, bovine retina
# T4 construct: The photoreceptor PDE (PDE6) is obtained from bovine retina; from tissue; host or cells: bovine retina
# T4 sequence (P11541 2-856 limits assumed): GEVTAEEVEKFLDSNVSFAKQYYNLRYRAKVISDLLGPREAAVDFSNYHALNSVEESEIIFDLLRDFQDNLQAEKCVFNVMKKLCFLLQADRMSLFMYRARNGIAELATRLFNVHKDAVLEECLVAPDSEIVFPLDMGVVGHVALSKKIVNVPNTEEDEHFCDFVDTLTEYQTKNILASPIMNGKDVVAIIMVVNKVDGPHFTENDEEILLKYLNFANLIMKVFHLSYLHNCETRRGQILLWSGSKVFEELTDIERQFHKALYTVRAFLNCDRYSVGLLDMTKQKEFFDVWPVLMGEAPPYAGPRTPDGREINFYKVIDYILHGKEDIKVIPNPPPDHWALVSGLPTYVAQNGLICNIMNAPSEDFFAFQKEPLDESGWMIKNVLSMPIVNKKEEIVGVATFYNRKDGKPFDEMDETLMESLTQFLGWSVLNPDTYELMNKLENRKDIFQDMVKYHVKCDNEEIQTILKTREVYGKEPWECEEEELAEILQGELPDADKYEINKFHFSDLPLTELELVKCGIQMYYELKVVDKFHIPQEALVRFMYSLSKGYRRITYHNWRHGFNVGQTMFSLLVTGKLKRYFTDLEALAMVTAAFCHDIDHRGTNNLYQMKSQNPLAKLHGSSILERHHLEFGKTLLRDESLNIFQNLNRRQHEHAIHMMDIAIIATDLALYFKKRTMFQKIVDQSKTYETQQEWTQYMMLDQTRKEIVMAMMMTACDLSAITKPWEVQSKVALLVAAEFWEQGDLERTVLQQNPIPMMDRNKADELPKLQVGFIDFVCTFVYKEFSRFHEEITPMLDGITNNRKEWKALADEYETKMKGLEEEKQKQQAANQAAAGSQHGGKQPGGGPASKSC
# T4 sequence (P23439 2-850 limits assumed): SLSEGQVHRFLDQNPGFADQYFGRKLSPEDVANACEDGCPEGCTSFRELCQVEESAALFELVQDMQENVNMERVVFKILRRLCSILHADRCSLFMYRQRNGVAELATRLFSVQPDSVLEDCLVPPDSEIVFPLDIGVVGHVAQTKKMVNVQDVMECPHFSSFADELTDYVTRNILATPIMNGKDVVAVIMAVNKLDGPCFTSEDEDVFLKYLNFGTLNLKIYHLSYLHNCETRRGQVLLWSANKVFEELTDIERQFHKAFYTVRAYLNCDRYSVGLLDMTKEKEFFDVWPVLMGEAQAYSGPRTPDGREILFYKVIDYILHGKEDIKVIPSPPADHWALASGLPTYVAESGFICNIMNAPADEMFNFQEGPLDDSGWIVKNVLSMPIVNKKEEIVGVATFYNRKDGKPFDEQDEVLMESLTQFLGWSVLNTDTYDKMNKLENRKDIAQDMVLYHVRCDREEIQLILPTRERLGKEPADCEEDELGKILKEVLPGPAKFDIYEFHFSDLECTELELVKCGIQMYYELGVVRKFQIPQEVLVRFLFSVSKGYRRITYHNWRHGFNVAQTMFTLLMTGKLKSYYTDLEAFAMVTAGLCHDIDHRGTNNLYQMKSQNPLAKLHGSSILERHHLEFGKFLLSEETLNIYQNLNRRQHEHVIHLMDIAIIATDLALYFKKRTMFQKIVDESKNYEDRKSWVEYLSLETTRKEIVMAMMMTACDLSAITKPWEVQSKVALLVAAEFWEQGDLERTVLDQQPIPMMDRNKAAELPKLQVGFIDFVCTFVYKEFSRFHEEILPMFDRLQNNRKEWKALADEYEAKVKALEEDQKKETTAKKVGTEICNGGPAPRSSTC
# Excerpt: as §1, §2, §3, §4
# [9] = biological target: T5, PDE1 (calcium/calmodulin (Ca/CAM)-dependent PDE) (Homo sapiens, UniProt Q14123); experiment: PDE inhibition, PDE type 1 from human cardiac ventricle; details: PDE type 1, human cardiac ventricle
# T5 construct: obtained from either human cardiac ventricle or rat kidney; from tissue; host or cells: human cardiac ventricle
# Excerpt: as §1, §2, §3, §4
# [10] = biological target: T6, PDE5 (cGMP-specific PDE) (Homo sapiens, UniProt O76074); experiment: PDE inhibition, PDE type 5 from human corpus cavernosum; details: PDE type 5, human corpus cavernosum
# T6 construct: are obtained from human corpus cavernosum tissue; from tissue; host or cells: human corpus cavernosum
# Excerpt: as §1, §2, §3, §4
# [11] = rabbit platelet, comparative study, read-out: PDE5 INHIBITION - IC50 Values
# [12] = rat kidney, comparative study, cGMP, read-out: cGMP / PDE1 INHIBITION - IC50 Values
# [13] = further studies, IC50 per protocol, read-out: RABBIT PLATELET PDE5
# [14] = further studies, IC50 per protocol, read-out: RAT KIDNEY PDE1
# T3 sequence (O00408 whole entry): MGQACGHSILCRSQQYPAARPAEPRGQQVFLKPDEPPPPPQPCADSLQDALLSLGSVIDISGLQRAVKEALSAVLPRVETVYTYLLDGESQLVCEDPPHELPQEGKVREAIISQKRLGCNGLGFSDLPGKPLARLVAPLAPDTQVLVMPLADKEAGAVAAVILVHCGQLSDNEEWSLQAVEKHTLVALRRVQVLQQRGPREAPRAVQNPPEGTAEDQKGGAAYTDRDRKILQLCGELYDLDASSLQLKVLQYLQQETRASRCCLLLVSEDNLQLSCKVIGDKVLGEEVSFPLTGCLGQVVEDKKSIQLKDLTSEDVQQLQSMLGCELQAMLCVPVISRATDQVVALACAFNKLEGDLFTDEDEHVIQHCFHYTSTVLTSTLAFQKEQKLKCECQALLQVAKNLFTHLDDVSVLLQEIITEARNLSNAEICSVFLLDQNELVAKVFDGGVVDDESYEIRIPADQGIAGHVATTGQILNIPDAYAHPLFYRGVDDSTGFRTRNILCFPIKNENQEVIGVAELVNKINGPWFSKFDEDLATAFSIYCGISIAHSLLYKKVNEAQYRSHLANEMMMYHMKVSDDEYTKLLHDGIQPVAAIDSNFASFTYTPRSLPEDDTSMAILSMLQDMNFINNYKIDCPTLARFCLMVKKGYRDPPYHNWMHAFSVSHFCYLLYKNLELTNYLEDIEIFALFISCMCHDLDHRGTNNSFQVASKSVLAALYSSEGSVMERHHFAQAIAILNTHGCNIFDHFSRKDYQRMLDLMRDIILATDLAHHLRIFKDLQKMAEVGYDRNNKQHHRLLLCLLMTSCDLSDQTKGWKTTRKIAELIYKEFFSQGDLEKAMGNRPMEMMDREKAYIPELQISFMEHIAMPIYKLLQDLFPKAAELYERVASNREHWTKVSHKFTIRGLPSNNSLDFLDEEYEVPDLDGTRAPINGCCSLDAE
# T5 sequence (Q14123 1-634 isoform Q14123-2): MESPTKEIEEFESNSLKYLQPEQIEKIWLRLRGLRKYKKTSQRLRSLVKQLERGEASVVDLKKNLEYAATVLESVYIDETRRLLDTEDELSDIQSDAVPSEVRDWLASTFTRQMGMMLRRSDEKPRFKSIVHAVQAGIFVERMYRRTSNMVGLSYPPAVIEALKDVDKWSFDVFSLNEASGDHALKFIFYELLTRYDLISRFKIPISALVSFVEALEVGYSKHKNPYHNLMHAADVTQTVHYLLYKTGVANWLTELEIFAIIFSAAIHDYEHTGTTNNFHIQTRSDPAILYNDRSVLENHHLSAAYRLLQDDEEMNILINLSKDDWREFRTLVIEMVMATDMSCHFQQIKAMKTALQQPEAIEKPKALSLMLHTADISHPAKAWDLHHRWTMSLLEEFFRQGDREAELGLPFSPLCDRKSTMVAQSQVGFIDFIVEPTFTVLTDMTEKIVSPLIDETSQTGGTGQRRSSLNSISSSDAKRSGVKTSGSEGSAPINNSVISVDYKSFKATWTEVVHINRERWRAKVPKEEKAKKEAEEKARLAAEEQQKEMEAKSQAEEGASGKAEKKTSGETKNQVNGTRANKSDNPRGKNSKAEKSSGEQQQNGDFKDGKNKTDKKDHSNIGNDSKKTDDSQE
"IC50 [1, 11] [nM]","IC50 [3, 12] [nM]",IC50 [4] [nM],"IC50 [1, 13] [nM]","IC50 [3, 14] [nM]",IC50 [5] [nM],IC50 [6] [nM],IC50 [7] [nM],IC50 [8] [nM],IC50 [9] [nM],IC50 [10] [nM],SMILES,PDE1 inhibition ([2]; statement in words),potency and selectivity as PDE1 inhibitor [2]
2800,9900,3200,–,–,–,–,–,–,–,–,"Cc1nn(C)c2c(=O)[nH]c(Cc3ccc(N(C)C)cc3)nc12 ['188 compound, reference compound]",not as effective at such low concentrations; also recorded: at least a weak PDE1 inhibitor,–
–,–,–,6400,94,–,–,–,–,–,–,CCCc1nn(C)c2c(=O)[nH]c(Cc3ccc(NS(=O)(=O)c4ccccc4)cc3)nc12 [Example 37],–,potent and selective PDE1 inhibitors
6700,37,2700,–,–,3940,23000,1990,2030,38,2490,"CCCc1nn(C)c2c(=O)[nH]c(Cc3ccc(N(CC)CC)cc3)nc12 [Example 50, 5-[4-(diethylamino)benzyl]-1-methyl-3-propyl-6,7-dihydro-1H-pyrazolo[4,3-d]pyrimidin-7-one]",–,potent and selective PDE1 inhibitors
–,–,–,1800,59,–,–,–,–,–,–,CCCc1nn(C)c2c(=O)[nH]c(Cc3ccccc3NS(C)(=O)=O)nc12 [Example 36],–,potent and selective PDE1 inhibitors
